Consider nine compounds from US10688105B2, “Method of treating refractory rheumatoid arthritis associated with p53 mutation” (priority 2017, dated 2020).

pIC50: −log10 of the molar value.

Data set [1] concerns RAFLS. Kind of data set: Annexin V flow cytometry cell death in RAFLS. In kind it is cell-based. The following applies: 24 h; for celastrol-mediated autophagic cell death with inhibitor: 2 μM celastrol with 5 mM 3-MA or 5 μM BAPTA/AM. The method, then:
(§1) Annexin V flow cytometry analysis was applied. Cell death and viability are measured using an Annexin V staining kit (BD Biosciences, San Jose, Calif., USA). Briefly, RAFLS are treated with 0-2 μM celastrol for 24 h. Cells are then harvested and analysed by multiparametric flow cytometry using FITC-Annexin V and Propidium iodide staining (BD Biosciences, San Jose, Calif., USA) according to the manufacturer's instructions. Flow cytometry is then carried out using a FACSCalibur flow cytometer (BD Biosciences, San Jose, Calif., USA). Data acquisition and analysis is performed with CellQuest (BD Biosciences, San Jose, Calif., USA). Data are obtained from three independent experiments.
as §1, with “performed.” for “applied.”, “1 or 2” for “0-2”, “celastrol in the presence or absence of autophagic inhibitor, 3-MA or calcium chelator, BAPTA/AM (BM)” for “celastrol”
(In flow cytometry, cells or beads pass a laser one at a time.)

In data set [2] the test system is RASFs. Nature of the data set: Cytosolic Ca2+ dynamic, FLIPR Calcium 6 Assay Kit in RASFs. The following applies: for celastrol-induced calcium dynamic change under co-/pre-treatment: 1 μM celastrol with 5 μM Compound C or 1 μM thapsigargin; for calcium dynamic change: 1 μM, compound alone. The data set is classed as cell-based, human. The method, then: Intracellular cytosolic Ca^2+ dynamic was measured using the FLIPR Calcium 6 Assay Kit (Molecular Devices) according to the manufacturer's instructions. In brief, RASFs were plated at a density of 10000 cells per well in black wall/clear bottom 96-multiwell plates from Costar (Tewksbury, Mass., USA) and cultured for 24 h before treatment. After that, calcium 6 reagent was added directly to cells, and cells were incubated for an additional 2 h at 37° C. and 5% CO2. Indicated concentrations of celastrol or thapsigargin were then added to the wells and immediately subjected to data acquisition on the SpectraMax Paradigm Multi-Mode Microplate Reader (Molecular Devices) at room temperature using a 1-s reading interval throughout the experiments.

In data set [3] the test system is RAFLS. Nature of the data set: Endogenous LC3-II puncta (autophagy) in RAFLS. The data set is classed as cell-based, human. The following applies: 24 h. The method, then: RAFLS were treated with DMSO as a control group or celastrol at a concentration of 0.25, 0.5, 1 or 2 μM for 24 h.
(§2) Data from the bar chart represented the mean values±S.D. of three independent experiments; error bars, S.D. ***, P<0.001.
(§3) In order to determine endogenous expression of LC3-II, RASFs or RAFLS treated with indicated time and concentrations of celastrol (Cel) were fixed and visualised by fluorescence microscopy after staining with an LC3-II antibody followed by TRITC-conjugated anti-mouse secondary antibody.
To determine the endogenous expression of LC3-II, RAFLS were treated with indicated concentrations of celastrol in the presence or absence of BAPTA/AM (BM) for 24 h. The cells were then fixed and visualised by fluorescence microscopy after staining with an LC3-II antibody followed by TRITC-conjugated anti-mouse secondary antibody.

Data set [4] concerns RASFs. Nature of the data set: LC3 conversion Western blot in RASFs. The data set is classed as cell-based, human. The following applies: 2 μM celastrol, 10 μM BAPTA/AM. The method, then: In a detection of autophagic marker protein LC3 conversion, after celastrol treatments with or without the calcium chelator, BAPTA/AM (BM), RASFs were harvested and lysed in RIPA buffer (Cell Signaling Technologies Inc. (Beverly, Mass.). The cell lysates were then resolved by SDS-PAGE. After electrophoresis, the proteins from SDS-PAGE were transferred to nitrocellulose membrane which was then blocked with 5% non-fat dried milk for 60 minutes. The membrane was then incubated with LC3 primary antibodies (1:1000) in TBST overnight at 4° C. After that, the membrane was further incubated with HRP-conjugated secondary antibodies for 60 minutes. Finally, protein bands were visualized by using the ECL Western Blotting Detection Reagents (Invitrogen, Paisley, Scotland, UK).

The subject of data set [5] is adjuvant-induced arthritis (AIA) rat model. Nature of the data set: Adjuvant-induced arthritis (AIA) rat model. The following applies: AIA rats; for microCT of hind joints: swollen joints and cartilage destruction: left hind paw.
For data set [6], the system named is P-gp-over-expressing RAFLS. Nature of the data set: Annexin V flow cytometry, celastrol with methotrexate in RAFLS. The data set is classed as cell-based, human. As to conditions: celastrol 0.1-0.2 μM with 450 μM MTX, 24 h. The method, then: Celastrol-induced cell death was measured by flow cytometry analysis after annexin V staining.
as §1, with “performed.” for “applied.”, “Briefly, RAFLS are treated with 0-2 μM celastrol for 24 h.” left out

The target in data set [7] is T1, P-gp ATPase (Homo sapiens, UniProt P08183).
T1 construct: purchased Promega, Madison, Wis
T1 sequence (P08183 whole entry): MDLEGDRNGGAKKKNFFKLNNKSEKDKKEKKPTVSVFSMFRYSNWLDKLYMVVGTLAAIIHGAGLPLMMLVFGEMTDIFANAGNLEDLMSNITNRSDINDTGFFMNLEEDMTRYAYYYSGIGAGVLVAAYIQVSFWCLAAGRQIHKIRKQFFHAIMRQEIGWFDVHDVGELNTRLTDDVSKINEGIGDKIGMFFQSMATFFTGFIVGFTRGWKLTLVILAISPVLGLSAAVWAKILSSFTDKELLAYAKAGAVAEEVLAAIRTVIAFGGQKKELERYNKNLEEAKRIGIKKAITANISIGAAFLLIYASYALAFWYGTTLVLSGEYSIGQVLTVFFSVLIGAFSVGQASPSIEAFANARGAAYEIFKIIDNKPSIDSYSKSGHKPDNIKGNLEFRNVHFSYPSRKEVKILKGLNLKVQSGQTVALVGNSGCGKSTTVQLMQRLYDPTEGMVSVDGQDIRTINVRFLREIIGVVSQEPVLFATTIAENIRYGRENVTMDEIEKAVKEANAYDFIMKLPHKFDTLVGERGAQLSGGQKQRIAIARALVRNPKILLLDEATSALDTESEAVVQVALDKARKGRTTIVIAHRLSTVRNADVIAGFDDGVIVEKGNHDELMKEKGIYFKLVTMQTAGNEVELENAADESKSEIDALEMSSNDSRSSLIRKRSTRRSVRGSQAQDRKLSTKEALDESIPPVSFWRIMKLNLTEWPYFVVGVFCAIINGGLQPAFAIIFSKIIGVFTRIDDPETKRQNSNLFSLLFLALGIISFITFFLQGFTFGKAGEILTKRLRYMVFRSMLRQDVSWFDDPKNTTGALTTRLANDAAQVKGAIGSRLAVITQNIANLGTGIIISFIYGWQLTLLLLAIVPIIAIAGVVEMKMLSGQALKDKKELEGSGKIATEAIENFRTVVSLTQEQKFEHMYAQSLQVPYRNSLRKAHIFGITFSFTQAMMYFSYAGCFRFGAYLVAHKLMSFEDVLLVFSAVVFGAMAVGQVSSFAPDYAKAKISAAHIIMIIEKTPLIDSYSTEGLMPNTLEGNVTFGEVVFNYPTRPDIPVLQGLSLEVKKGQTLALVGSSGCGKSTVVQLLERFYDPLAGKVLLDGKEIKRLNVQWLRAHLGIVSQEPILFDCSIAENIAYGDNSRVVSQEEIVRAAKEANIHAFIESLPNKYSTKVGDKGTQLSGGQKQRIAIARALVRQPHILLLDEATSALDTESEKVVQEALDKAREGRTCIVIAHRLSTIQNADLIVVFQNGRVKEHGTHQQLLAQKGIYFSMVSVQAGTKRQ
Kind of data set: Pgp-Glo assay of P-gp ATPase activity. In kind it is biochemical. As to conditions: celastrol 0.5, 1, 2 μM with 200 μM verapamil and ATP, 1 hour, 37° C. The method, then: The luminescence was then measured by P-gp Glo™ Assay System. Change in luminescence (RLU) represented the activity of P-gp, whereas the activity shown in the control group indicated the basal P-gp ATPase activity.
The luminescence of the sample reflects the ATP level in the sample, which is negatively correlated with the activity of P-gp ATPase and was recorded using the SpectraMax Paradigm Multi-Mode Microplate Reader (Molecular Devices). DMSO-treated activities are expressed as the percentage of basal activity. By comparing basal activity to test compound-treated activities, the compounds can be ranked as stimulating, inhibiting, or having no effect on basal P-gp ATPase activity.

The test system of data set [8] is RAFLS p53 N239S. Nature of the data set: MTT cytotoxicity assay, RAFLS transfected with p53 mutant N239S. In kind it is cell-based, human. The method, then:
(§4) Cytotoxicity Assays were performed. […] Data were obtained from triplication independent experiments.
(In general: Formazan colour is commonly taken as a measure of viable cells.)

Data set [9] can be described thus: MTT cytotoxicity assay, RAFLS. In kind it is cell-based. The following applies: human. The source says:
Data were obtained from triplication independent experiments.

Data set [10] has as its system RASFs. Kind of data set: Endogenous LC3-II puncta (autophagy) in RASFs. In kind it is cell-based, human. The following applies: 1 μM, 10-240 min. The method, then:
RASFs were treated with DMSO as a control group or 1 μM celastrol for 10, 30, 60 or 240 min. The cells were then fixed and visualized for endogenous LC3-II expression by fluorescence microscopy using LC3-II antibody plus TRITC-conjugated anti-mouse secondary antibody.
as §2, §3

Data set [11] concerns RAFLS. Nature of the data set: Cytosolic calcium level by Fluo-3 flow cytometry in RAFLS. In kind it is cell-based, human. As to conditions: 1 μM 0-24 h, 0.1-2 μM 4 h. The method, then: Flow cytometry analysis was performed to determine the cytosolic calcium level. Intracellular free calcium was measured by a fluorescent dye, Fluo-3. Briefly, RAFLS were washed twice with DMEM media after Celastrol treatment (1 μM) for 4 h. Then cell suspensions were incubated with 5 μM Fluo-3 at 37° C. for 30 min. Then the cells were washed twice with HBSS. After re-suspended cell samples were subjected to FACS analysis. At least 10,000 events were analyzed.

Data set [12] is described as follows: in vitro. The following applies: human.
Description: (§5) All test compounds were dissolved in DMSO at final concentrations of 50 mmol/L and stored at −20° C. before use. Cytotoxicity was assessed using the 3-(4, 5-dimethylthiazol-2-yl)-2, 5-diphenyltetrazolium bromide (MTT) (5.0 mg/ml) assay. Briefly, 4×10^3 RAFLS cells overexpressed with P-gp were seeded per well in 96-well plates before drug treatment. […] Cells without drug treatment were used as control. Subsequently, MTT (10 μL) was added to each well and incubated at 37° C. for 4 hours followed by the addition of 100 μL solubilization buffer (10% SDS in 0.01 mol/L HCl) and overnight incubation. A570 nm was determined from each well on the next day. The percentage of cell viability was calculated using the following formula: Cell viability (%)=Atreated/Acontrol×100. Data were obtained from triplication independent experiments.
For data set [13], the system named is P-gp. Nature of the data set: Rho123 exclusion assay in P-gp overexpressing RAFLS. The data set is classed as cell-based, human. As to conditions: relatively low doses of celastrol. The method, then: At the end of the incubation, the accumulation of Rho123 was stopped by washing the cells five times with ice-cold PBS. After cell centrifugation, cell pellets were resuspended in 400 μL PBS. […] All data acquisition and analyses were performed with CellQuest (BD Biosciences, San Jose, Calif., USA) in triplicate in three independent experiments, and the results were shown as the mean of fluorescence intensity.

For data set [14], the system named is RAFLS p53 WT. Nature of the data set: MTT cytotoxicity assay, RAFLS Ctrl p53 WT. The data set is classed as cell-based, human. The method, then: as §4
Data set [15] relates to RAFLS p-gp over expression. Kind of data set: MTT cytotoxicity assay, RAFLS overexpressed with P-gp. The following applies: RAFLS p-gp over expression vs RAFLS.
Description: as §5
Data set [16] relates to RAFLS p53 R213*. Nature of the data set: MTT cytotoxicity assay, RAFLS transfected with p53 mutant R213*. In kind it is cell-based, human. The method, then:
as §4

[17] abbreviates: Homo sapiens, RA-FLS, 72 h, read-out: mean IC50.
The mark [18] stands for this setting: celastrol 1 and 2 mg/kg i.p., 36 days, vs vehicle-treated.
Setting [19] is: RAFLS cells overexpressing P-gp.

With `Cn1cnc(N)c2ncnc1-2` [3-MA, 3-methyladenine], the “celastrol-mediated autophagic cell death with inhibitor” value in data set [1] is listed as “completely abolished”.
In the case of `c1cc(-c2cnn3cc(-c4ccc(OCCN5CCCCC5)cc4)cnc23)ccn1` [AMPK inhibitor], the “celastrol-induced calcium dynamic change under co-/pre-treatment” value in data set [2] is “no inhibitory effect”.
With `CC(=O)OCOC(=O)CN(CC(=O)OCOC(C)=O)c1ccccc1OCCOc1ccccc1N(CC(=O)OCOC(C)=O)CC(=O)OCOC(C)=O` [BAPTA/AM, reference compound], the “celastrol-mediated autophagic cell death with inhibitor” value in [1] is given as “completely abolished”. The “celastrol-induced endogenous LC3-II puncta formation with co-treatment” value in data set [3] (1 μM celastrol, 10 μM BAPTA/AM) is “dramatically suppressed”. The “LC3-II conversion with co-treatment” value in data set [4] is reported as “inhibited LC3-II conversion”. The “anti-arthritic effect of celastrol with calcium chelator” value in data set [5] (celastrol 1 mg/kg + BAPTA/AM 3.5 mg/kg) was “retarded the anti-arthritic effect of celastrol”.
By pIC50 is commonly meant the IC50 on a negative log10 scale, so that one unit is a factor of ten. In general, IC50 refers to the midpoint of a concentration-inhibition curve. A lower IC50 goes with greater potency. Turning to `CC1=C(O)C(=O)C=C2C1=CC=C1[C@@]2(C)CC[C@@]2(C)[C@@H]3C[C@](C)(C(=O)O)CC[C@]3(C)CC[C@]12C` [Celastrol, celastrol], the “cell death (cytotoxicity), annexin V” value in data set [1] (0.25-2 μM) is on record as “dose-dependent cytotoxicity”. Moreover, the “autophagy induction, endogenous LC3-II puncta” value in data set [3] (0.25-2 μM) is recorded as “dose-dependent autophagy induction”; in data set [10] it was “induced autophagy in time-dependent manner”. Besides, the “MTX-mediated cell death (sensitization)” value in [6] is “potentiating the toxicity of MTX”. Also, in data set [7], the “verapamil-activated P-gp activity” value is “directly suppresses the activated form of P-gp in dose-dependently manner”. The calcium dynamic change result in [2] was “stimulated relative weak calcium dynamic”. The values for the negative-log IC50 (pIC50) in data set [8] (setting [17]), in [14] (setting [17]) and in [16] (setting [17]) were 6.00, 6.00 and 6.14, respectively. In addition, the “Resistant factor, RF” value in [8] (RAFLS p53 N239S vs p53 WT) is “RF: 1.01”; in [14] (RAFLS Ctrl p53 WT (reference)), “RF: 1”; in data set [16] (RAFLS p53 R213* vs p53 WT) it was “RF: 0.72”. For the same compound, the half-maximal inhibitory concentration (IC50) at 72 h in data set [9] came to 1.3 µM; in [12], 1.45 µM. Moreover, the “erythrocyte sedimentation rate (ESR)” value in data set [5] is recorded as “down-regulated”. Also, the “body weight or organ weight” value in [5] (36 days) is recorded as “without impairment”. Further, the arthritic scores entry in data set [5] (setting [18]) is given as “significantly reduced”. Besides, the hind paw volume result in data set [5] (setting [18]) is “significantly reduced”. In addition, the “microCT of hind joints: swollen joints and cartilage destruction” value in data set [5] was “markedly improved”. Also, in data set [11], the “calcium mobilization (Fluo-3)” value was “time and dose-dependently disturbs calcium homeostasis”. Further, in [13], the “Rho123 accumulation in P-gp overexpressing RAFLS” value is recorded as “gradually increased Rho123 accumulation in a dose-dependent manner”. In addition, the “Resistant Factor” value in data set [15] was 1.12.
Take `COc1cc2c(c(OC)c1OC)-c1ccc(OC)c(=O)cc1[C@@H](NC(C)=O)CC2` [Colchicine, colchicine]: the results for the half-inhibitory concentration (IC50) at 72 h in [9] and in [12] were 11.3 µM and 46 µM, respectively. For the same compound, the “Resistant Factor” value in data set [15] is recorded as 4.07.
Take `C[C@@H]1C[C@H]2[C@@H]3CCC4=CC(=O)C=C[C@]4(C)[C@@]3(F)[C@@H](O)C[C@]2(C)[C@@]1(O)C(=O)CO` [Dexamethasone, dexamethasone]: the IC50 at 72 h in data set [9] (RAFLS cells) was 600 µM; in [12] (setting [19]), over 2000 µM.
Compound `CN(Cc1cnc2nc(N)nc(N)c2n1)c1ccc(C(=O)N[C@@H](CCC(=O)O)C(=O)O)cc1` [Methotrexate, methotrexate] displayed an IC50 at 72 h in data set [9] (RAFLS cells) of 219 µM. Further, in data set [5], the “erythrocyte sedimentation rate (ESR)” value is given as “down-regulated”; the “microCT of hind joints: swollen joints and cartilage destruction” value is “markedly improved”. Besides, in data set [12] (setting [19]), the 50% inhibitory concentration (IC50) at 72 h was 838 µM. Also, the “Resistant Factor” value in data set [15] is 3.83.
Consider `C[C@]12C=CC(=O)C=C1CC[C@@H]1[C@@H]2[C@@H](O)C[C@@]2(C)[C@H]1CC[C@]2(O)C(=O)CO` [Prednisolone, prednisolone], for which the IC50 at 72 h in [9] (RAFLS cells) is 123 µM; in [12] (setting [19]), 216 µM.
As to `C/C=C(/C)C(=O)O[C@H]1C(C)=C2[C@H]([C@@H]1OC(=O)CCCCCCC)[C@@](C)(OC(C)=O)C[C@H](OC(=O)CCC)[C@@]1(O)[C@H]2OC(=O)[C@@]1(C)O` [thapsigargin], in data set [2], the “celastrol-induced calcium dynamic change under co-/pre-treatment” value is on record as “extremely low response in calcium mobilization upon celastrol treatment” and the calcium dynamic change entry was “significantly induced the calcium dynamic change”.
